Test results as given in the supplement of paper PMC10307832.

Compound: CC(C)N(CCCNC(=O)Nc1ccc(C(C)(C)C)cc1)C[C@H]1O[C@@H](n2ccc3c(N)ncnc32)[C@H](O)[C@@H]1O + CCNC(=O)c1noc(-c2cc(C(C)C)c(O)cc2O)c1-c1ccc(CN2CCOCC2)cc1 [Luminespib] (partner 0.01 µM)
Experiment: relative viability (nuclei count vs DMSO), 5 days (fraction); higher = more cells survive
Settings: first compound 0.08 µM
Procedure, shortened: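 Lung cancer cell lines, seeded in 1536-well plates, were treated the following day by pin tool with a single drug or with five library-drug doses (not always all listed) in √10 steps on top of a fixed anchor-drug dose. Cells were fixed and nuclei stained in one step after 5 days, and nuclei were counted. Relative viability is the nuclei count for treated wells divided by that for vehicle wells, reported as medians of duplicate plates.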

Row | Cell Line | relative viability
1 | HARA | 0.682
2 | NCI-H441 | 0.39
3 | LCLC-97TM1 | 0.699
4 | NCI-H2023 | 0.694
5 | A-427 | 0.889
6 | NCI-H460 | 0.0341
7 | NCI-H838 | 0.366
8 | NCI-H1734 | 0.218
9 | NCI-H596 | 1.06
10 | NCI-H2405 | 0.691
11 | NCI-H1395 | 0.632
12 | 201T | 1.04
13 | NCI-H1915 | 0.757
14 | HCC-827 | 0.625
15 | LXF-289 | 0.731
16 | NCI-H2347 | 0.578
17 | NCI-H661 | 0.936

Row | Cell Line | relative viability
18 | CAL-12T | 0.733
19 | NCI-H1651 | 0.805
20 | EPLC-272H | 0.0863
21 | NCI-H23 | 0.224
22 | NCI-H1792 | 0.47
23 | NCI-H1355 | 0.763
24 | NCI-H322M | 0.92
25 | NCI-H1437 | 1.07
26 | NCI-H1755 | 0.553
27 | NCI-H2085 | 0.434
28 | HCC-15 | 0.327
29 | NCI-H1793 | 0.18
30 | RERF-LC-KJ | 1.2
31 | EKVX | 0.758
32 | LC-2-ad | 0.935
33 | NCI-H1944 | 0.716
34 | NCI-H1975 | 0.214

Same assay, conditions: first compound 0.253 µM

Row | Cell Line | relative viability
35 | HARA | 0.626
36 | NCI-H441 | 0.334
37 | LCLC-97TM1 | 0.647
38 | NCI-H2023 | 0.771
39 | A-427 | 0.875
40 | NCI-H460 | 0.0252
41 | NCI-H838 | 0.273
42 | NCI-H1734 | 0.19
43 | NCI-H2405 | 0.61
44 | NCI-H1395 | 0.734
45 | 201T | 1.01
46 | NCI-H1915 | 0.819
47 | HCC-827 | 0.573
48 | LXF-289 | 0.679
49 | NCI-H2347 | 0.321
50 | NCI-H661 | 0.966

Row | Cell Line | relative viability
51 | CAL-12T | 0.365
52 | NCI-H1651 | 0.903
53 | EPLC-272H | 0.265
54 | NCI-H23 | 0.23
55 | NCI-H1355 | 0.614
56 | NCI-H322M | 0.759
57 | NCI-H1437 | 1.02
58 | NCI-H1755 | 0.53
59 | NCI-H2085 | 0.506
60 | HCC-15 | 0.378
61 | RERF-LC-KJ | 1.22
62 | EKVX | 0.847
63 | LC-2-ad | 0.973
64 | NCI-H1944 | 0.683
65 | NCI-H1975 | 0.154

Same assay, conditions: first compound 0.8 µM

Row | Cell Line | relative viability
66 | HARA | 0.731
67 | LCLC-97TM1 | 0.705
68 | NCI-H2023 | 0.807
69 | A-427 | 1.03
70 | NCI-H460 | 0.0359
71 | NCI-H838 | 0.307
72 | NCI-H1734 | 0.209
73 | NCI-H596 | 0.923
74 | NCI-H2405 | 0.722
75 | NCI-H1395 | 0.571
76 | 201T | 1.13
77 | NCI-H1915 | 0.676
78 | LXF-289 | 0.65
79 | NCI-H2347 | 0.245
80 | NCI-H661 | 0.947
81 | CAL-12T | 0.512

Row | Cell Line | relative viability
82 | NCI-H1651 | 0.785
83 | EPLC-272H | 0.268
84 | NCI-H23 | 0.199
85 | NCI-H1792 | 0.394
86 | NCI-H1355 | 0.679
87 | NCI-H322M | 0.889
88 | NCI-H1437 | 1.14
89 | NCI-H1755 | 0.367
90 | NCI-H2085 | 0.441
91 | HCC-15 | 0.435
92 | NCI-H1793 | 0.292
93 | RERF-LC-KJ | 1.33
94 | EKVX | 0.838
95 | LC-2-ad | 1.07
96 | NCI-H1944 | 0.819

Same assay, conditions: first compound 2.53 µM

Row | Cell Line | relative viability
97 | HARA | 0.536
98 | NCI-H441 | 0.278
99 | LCLC-97TM1 | 0.666
100 | NCI-H2023 | 0.858
101 | A-427 | 0.884
102 | NCI-H460 | 0.0291
103 | NCI-H838 | 0.331
104 | NCI-H1734 | 0.188
105 | NCI-H596 | 0.955
106 | NCI-H2405 | 0.78
107 | NCI-H1395 | 0.884
108 | 201T | 0.984
109 | NCI-H1915 | 0.789
110 | HCC-827 | 0.599
111 | LXF-289 | 0.669
112 | NCI-H2347 | 0.371
113 | NCI-H661 | 0.975

Row | Cell Line | relative viability
114 | CAL-12T | 0.465
115 | NCI-H1651 | 0.765
116 | EPLC-272H | 0.46
117 | NCI-H23 | 0.233
118 | NCI-H1792 | 0.446
119 | NCI-H1355 | 0.609
120 | NCI-H322M | 0.76
121 | NCI-H1437 | 1.15
122 | NCI-H1755 | 0.43
123 | NCI-H2085 | 0.414
124 | HCC-15 | 0.33
125 | NCI-H1793 | 0.171
126 | RERF-LC-KJ | 1.18
127 | EKVX | 0.909
128 | LC-2-ad | 0.893
129 | NCI-H1944 | 0.709
130 | NCI-H1975 | 0.213

Same assay, conditions: first compound 8 µM

Row | Cell Line | relative viability
131 | HARA | 0.587
132 | NCI-H441 | 0.368
133 | LCLC-97TM1 | 0.707
134 | NCI-H2023 | 0.621
135 | A-427 | 0.817
136 | NCI-H460 | 0.0376
137 | NCI-H838 | 0.286
138 | NCI-H1734 | 0.23
139 | NCI-H596 | 1.12
140 | NCI-H2405 | 0.74
141 | NCI-H1395 | 0.798
142 | 201T | 1.06
143 | NCI-H1915 | 0.77
144 | HCC-827 | 0.688
145 | LXF-289 | 0.71
146 | NCI-H2347 | 0.555
147 | NCI-H661 | 0.957
148 | CAL-12T | 0.423
149 | NCI-H1651 | 0.722
150 | EPLC-272H | 0.232
151 | NCI-H23 | 0.21
152 | NCI-H1792 | 0.439
153 | NCI-H1355 | 0.665
154 | NCI-H322M | 0.913
155 | NCI-H1437 | 1.05
156 | NCI-H1755 | 0.349
157 | NCI-H2085 | 0.389
